Reference: US5152784A, “Prosthetic devices coated with a polypeptide with type IV collagen activity” (Regents of the University of Minnesota, priority 1991, dated 1992)
“Also recorded” adds a separate entry of the source. Blank lines part the entries; values can stand above or below the substance they belong to.

Assays:
peptide Hep-III = target: T1, peptide Hep-III (Homo sapiens, UniProt P02462); experiment: Competition of 3H-heparin binding to coated peptide Hep-III by glycosaminoglycans; details: Hep-III coated from 500 μg/ml; 3H-heparin 50,000 cpm per well; unlabeled glycosaminoglycan in increasing amounts
T1 construct: residues 531-543 from the amino-terminus of the α1 chain of type IV collagen; The single letter amino acid code for this polypeptide is GEFYFDLRLKGDK; made in house; host or cells: chemical solid-phase (Merrifield) peptide synthesis
Protocol: To check the specificity of the interaction between heparin and peptide Hep-III or whether the heparin structure was also critical to this interaction, heparin along with other sulfated glucosaminoglycans, dextran and chondroitin sulfate were used in competition experiments. A standard amount of […] of a solution containing 500 μg/ml of peptide Hep-III was coated on 96-well plates as described above. Wells were treated for two hours with 2 mg/ml BSA in wash buffer. Then, a final volume of 50 μl was added to each well, containing a standard amount of ^3 H-heparin (50,000 cpm per well) and various amounts of non-radioactive heparin, dextran or chondroitin sulfate. After incubating for two hours at 37° C., the wells were washed and radioactivity was counted as described above in Example 1.

type IV collagen = target: T2, type IV collagen (Homo sapiens, UniProt P02462+P08572); experiment: Inhibition of 3H-heparin binding to type IV collagen coated on plastic by peptide in solution; details: peptide in solution 0.5 mg/ml to 5 μg/ml; 3H-heparin 500 ng per well; type IV collagen coated at 60 μg/ml
T2 construct: intact, native type IV collagen coated on plastic
T2 sequence (P02462 173-1669): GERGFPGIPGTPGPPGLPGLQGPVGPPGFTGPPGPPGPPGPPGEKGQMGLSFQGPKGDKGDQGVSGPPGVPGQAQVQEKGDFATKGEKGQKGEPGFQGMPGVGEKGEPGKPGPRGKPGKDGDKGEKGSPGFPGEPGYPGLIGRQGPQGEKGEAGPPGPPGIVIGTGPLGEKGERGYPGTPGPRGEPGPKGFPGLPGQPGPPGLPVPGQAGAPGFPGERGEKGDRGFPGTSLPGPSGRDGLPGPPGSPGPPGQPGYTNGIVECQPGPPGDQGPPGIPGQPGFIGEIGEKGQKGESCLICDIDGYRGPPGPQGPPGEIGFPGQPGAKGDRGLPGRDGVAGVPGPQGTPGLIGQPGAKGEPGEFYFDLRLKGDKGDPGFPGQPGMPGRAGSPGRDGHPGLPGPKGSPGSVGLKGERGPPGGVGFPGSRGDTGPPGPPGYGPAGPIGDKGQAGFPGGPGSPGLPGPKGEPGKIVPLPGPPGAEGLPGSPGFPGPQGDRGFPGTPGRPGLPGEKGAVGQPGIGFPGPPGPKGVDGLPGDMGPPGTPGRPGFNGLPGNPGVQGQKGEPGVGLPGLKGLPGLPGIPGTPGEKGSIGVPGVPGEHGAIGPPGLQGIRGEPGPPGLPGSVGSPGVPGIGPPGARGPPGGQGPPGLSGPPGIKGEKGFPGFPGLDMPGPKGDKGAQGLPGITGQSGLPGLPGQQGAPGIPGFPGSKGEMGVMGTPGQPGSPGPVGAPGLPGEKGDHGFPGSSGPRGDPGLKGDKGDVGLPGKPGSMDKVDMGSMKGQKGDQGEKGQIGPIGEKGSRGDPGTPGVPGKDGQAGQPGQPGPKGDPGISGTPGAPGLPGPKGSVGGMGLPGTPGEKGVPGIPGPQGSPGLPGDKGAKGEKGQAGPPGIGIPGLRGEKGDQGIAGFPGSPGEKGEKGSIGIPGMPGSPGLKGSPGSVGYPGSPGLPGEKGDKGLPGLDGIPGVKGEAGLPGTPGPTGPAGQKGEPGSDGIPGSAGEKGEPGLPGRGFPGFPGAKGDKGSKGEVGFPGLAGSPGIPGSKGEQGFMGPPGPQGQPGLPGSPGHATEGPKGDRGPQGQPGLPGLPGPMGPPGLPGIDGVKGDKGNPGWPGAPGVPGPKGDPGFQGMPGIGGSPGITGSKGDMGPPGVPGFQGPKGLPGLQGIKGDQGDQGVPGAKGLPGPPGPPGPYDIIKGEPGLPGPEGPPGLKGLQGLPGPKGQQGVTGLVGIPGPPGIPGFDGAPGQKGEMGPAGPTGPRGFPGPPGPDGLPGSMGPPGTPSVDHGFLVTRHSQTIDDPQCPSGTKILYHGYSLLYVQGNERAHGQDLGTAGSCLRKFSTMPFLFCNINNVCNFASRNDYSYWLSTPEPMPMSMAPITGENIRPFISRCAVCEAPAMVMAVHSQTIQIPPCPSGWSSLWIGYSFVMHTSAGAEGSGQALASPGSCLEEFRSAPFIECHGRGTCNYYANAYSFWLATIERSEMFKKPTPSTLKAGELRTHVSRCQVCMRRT
T2 sequence (P08572 184-1712): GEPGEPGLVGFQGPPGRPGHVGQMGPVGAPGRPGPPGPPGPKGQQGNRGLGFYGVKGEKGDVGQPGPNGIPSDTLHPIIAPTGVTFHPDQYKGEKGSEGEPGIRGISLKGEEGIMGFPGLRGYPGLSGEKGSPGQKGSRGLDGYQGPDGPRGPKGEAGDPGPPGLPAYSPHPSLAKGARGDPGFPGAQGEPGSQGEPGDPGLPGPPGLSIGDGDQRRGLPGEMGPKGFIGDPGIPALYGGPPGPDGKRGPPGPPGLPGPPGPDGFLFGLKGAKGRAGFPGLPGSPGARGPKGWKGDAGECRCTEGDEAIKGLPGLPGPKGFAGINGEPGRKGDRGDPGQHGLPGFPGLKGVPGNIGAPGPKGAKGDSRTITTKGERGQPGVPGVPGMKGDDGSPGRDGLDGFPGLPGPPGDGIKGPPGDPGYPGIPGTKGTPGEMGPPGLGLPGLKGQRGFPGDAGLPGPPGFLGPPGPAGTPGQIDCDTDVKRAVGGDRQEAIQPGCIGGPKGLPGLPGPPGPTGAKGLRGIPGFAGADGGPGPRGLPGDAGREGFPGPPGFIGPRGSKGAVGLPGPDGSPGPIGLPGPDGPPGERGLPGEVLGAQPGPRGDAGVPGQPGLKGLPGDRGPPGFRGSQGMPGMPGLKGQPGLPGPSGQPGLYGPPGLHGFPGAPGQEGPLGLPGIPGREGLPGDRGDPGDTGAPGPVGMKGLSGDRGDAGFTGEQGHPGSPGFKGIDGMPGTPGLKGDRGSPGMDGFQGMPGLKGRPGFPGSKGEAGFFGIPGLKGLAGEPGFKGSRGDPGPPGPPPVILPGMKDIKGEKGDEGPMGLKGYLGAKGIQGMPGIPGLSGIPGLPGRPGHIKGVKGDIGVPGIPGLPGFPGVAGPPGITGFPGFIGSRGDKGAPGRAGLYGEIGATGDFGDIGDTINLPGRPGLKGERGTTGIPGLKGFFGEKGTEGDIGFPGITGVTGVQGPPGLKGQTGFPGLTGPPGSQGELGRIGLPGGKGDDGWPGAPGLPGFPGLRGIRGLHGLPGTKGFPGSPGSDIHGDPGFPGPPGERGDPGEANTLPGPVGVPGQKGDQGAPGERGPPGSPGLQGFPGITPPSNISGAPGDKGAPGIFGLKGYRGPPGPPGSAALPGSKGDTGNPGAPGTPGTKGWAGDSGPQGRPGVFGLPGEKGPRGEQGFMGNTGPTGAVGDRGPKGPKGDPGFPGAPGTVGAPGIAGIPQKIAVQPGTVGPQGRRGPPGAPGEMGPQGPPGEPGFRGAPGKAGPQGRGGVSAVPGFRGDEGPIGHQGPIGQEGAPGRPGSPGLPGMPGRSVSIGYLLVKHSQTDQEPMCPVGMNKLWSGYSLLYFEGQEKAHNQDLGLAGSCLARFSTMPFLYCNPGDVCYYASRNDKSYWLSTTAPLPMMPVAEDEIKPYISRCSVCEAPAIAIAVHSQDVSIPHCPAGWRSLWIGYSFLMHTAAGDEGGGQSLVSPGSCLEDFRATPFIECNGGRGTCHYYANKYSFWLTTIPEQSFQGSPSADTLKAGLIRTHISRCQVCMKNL
Protocol: Peptide Hep-III in solution (and not absorbed to plastic), was screened for the ability to inhibit the binding of heparin to intact, native type IV collagen coated on plastic. This experimental approach avoids problems due to differential coating of peptides in heparin binding assays. Type IV collagen at 60 μg/ml in PBS was coated on 96-well plates, using 50 μl per well and dried overnight at 28° C. The wells were then treated for two hours with 2 mg/ml BSA in wash buffer (described above in Example 1). Peptide Hep-III at various dilutions ranging from 0.5 mg/ml to 5 μg/ml in PBS and CHAPS (cholamido-propyl-dimethyl-ammoniopropane-sulfonate) (a detergent used to avoid non-specific sticking) was co-incubated with a standard amount of ^3 H-heparin (500 ng per well […]) for two hours at 37° C. and the mixture was then transferred to the collagen coated plate (50 μl) and allowed to incubate for another two hours at 37° C. The wells were then washed and radioactivity was counted as described above.

melanoma cell line (M4) = experiment: Inhibition of melanoma cell adhesion to type IV collagen-coated wells by peptide in solution; assay type: cell-based, murine; details: cells coincubated 20 min with peptide in solution, then 20 min on collagen-coated wells
Protocol: Cells were grown, labeled and harvested as described in Example 4, but after detachment and washing they were coincubated for 20 min. in the presence of various concentrations of peptide Hep-III in solution. They were then applied for another 20 min. on type IV collagen-coated plastic wells. At the end of the incubation the same treatment described in Example 4 was used.

endothelial cells [1] = experiment: Inhibition of 125I-Hep-III binding to endothelial cell surface by excess unlabeled peptide; design: species or system bovine; details: unlabeled peptide up to 500-fold excess; 15 min, 4° C.
Protocol: (§1) Melanoma and endothelial cells were grown in culture as discussed in Examples 4, 5, 6, and 7A (supra). On the day of the experiment, the cells were harvested by trypsinization (supra) and were co-incubated with 50 μl of peptide Hep-III. 50 μl a constant amount of ^125 I-labeled peptide Hep-III was mixed with increasing concentrations of unlabeled peptide Hep-III or a control peptide (maximal excess of unlabeled peptide: 500-fold over radiolabeled Hep-III). 50 μl of each concentration of unlabeled peptide which was mixed with radiolabeled Hep-III were then added to cells in suspension (5,000 cells per concentration of peptide). The cells were incubated with the mixture of unlabeled-radiolabeled peptide for 15 min. at 4° C. and they were then pelleted. The cells were subsequently washed and bound radioactivity was quantitated as described in Example 7A. […] These experiments provide confirmation that a specific interaction occurs between melanoma and endothelial-cell surfaces and peptide Hep-III.

melanoma cells [2] = experiment: Inhibition of 125I-Hep-III binding to melanoma cell surface by excess unlabeled peptide; design: species or system murine; details: unlabeled peptide up to 500-fold excess; 15 min, 4° C.
Protocol: as §1

[3] = Heparin binding to plastic plates coated with peptide
Protocol: The ability of the synthesized peptide Hep-III to interact with heparin when coated on 96-well plastic plates was evaluated. Stock solutions of peptide Hep-III at a concentration of 500 μg/ml were prepared in phosphate-buffered saline containing 0.02% sodium azide. Fifty μl from each concentration was coated on the 96-well plates and left to dry overnight at 28° C. Then, wells were treated for two hours with […] of 2 mg/ml BSA and 6 mM phosphate, 10 mM NaCl, 68 μM CaCl2, pH 6.8 (wash buffer) in order to minimize non-specific binding. Next 50 μl of ^3 H-heparin (10 μg/ml) was added at increasing concentrations (0 to 1400 ng/well) for two hours at 37° C. The wells were then washed three times with wash buffer containing 0.05% Triton X-100 and finally they were incubated for thirty minutes at 60° C. with 200 μl of 0.5N NaOH and 1% SDS. The amount of ^3 H-heparin bound at each concentration was quantitated with a Beckman LS-3801 liquid scintillation counter. […] Comparison with data obtained using exactly the same methodology indicate that peptide Hep-III is at least 10 times stronger than peptide Hep-I (TS-2 in U.S. Pat. No. 4,876,332) (see FIG. 5B) and about 100 times stronger than type IV collagen, when used in the same coating concentrations.

[4] = tested on: Bovine aortic endothelial cells; experiment: Direct adhesion of endothelial cells to peptide-coated plastic; assay type: cell-based; details: coated at increasing concentrations; 120 min, 37° C.
Protocol: Bovine aortic endothelial cells were isolated according to the following protocol. Aortas were obtained from a local slaughterhouse, washed in cold phosphate buffered saline (PBS) (136 mM NaCl, 2.6 mM KCl, 15.2 mM Na2 HPO4, pH 7.2) and processed within 2 hours. Crude collagenase (CLS III, 125-145 units per mg dry weight, Cooper Biomedical) was used at 2 mg/ml in Dulbecco's modified Eagle's medium (DMEM) (GIBCO). The vessel was clamped at the distal end, filled with the collagenase-PBS solution and digestion was carried out for 10 minutes. The lumenal contents were harvested, followed by the addition of fresh collagenase for two additional 10-minute periods. The enzyme-cell suspensions were added to an equal volume of DMEM containing 10% fetal bovine serum (FBS) to inhibit the enzyme and spun in a centrifuge at 400×g for 10 minutes. The resulting cell pellet was resuspended in DMEM containing 10% FBS, 100 units/ml of penicillin G, 100 μg/ml of streptomycin and 100 μg/ml of crude fibroblast growth factor. Cells are in 75 cm^2 flasks in a humidified 5% CO2 atmosphere at 37° C. Cultures were fed twice a week with the same medium and cells were used in assays when approximately 75% confluent. The cells were labeled for 24 hours prior to use with a mixture of ^35 S-labeled amino acids (3 mCi). […]

endothelial cells [5] = experiment: Direct binding of 125I-labeled peptide Hep-III to endothelial cell surface; design: species or system bovine; details: about 5,000 cells; 15 min, 4° C.; increasing peptide concentrations
Protocol: (§2) Endothelial and melanoma cells were grown in culture as described in Examples 4, 5, and 6 (supra). Cells used for this type of experiment were not labeled with radioactivity. Unlabeled cells were harvested by trypsinization (supra) on the day of the experiment. About 5,000 cells were mixed with 50 μl of a given concentration of peptide Hep-III in solution. Increasing concentrations of peptide Hep-III were used. The cells were incubated with the iodinated peptide for 15 min. at 4° C. and they were then pelleted by centrifugation. The cells were then resuspended and washed 3 times with DMEM containing 2 mg/ml BSA and 50 mM Hepes. Following the washes, the cells were pelleted for a final time in plastic tubes, the supernatant was decanted and the radioactivity of the pellet was quantitated in a Beckman scintillation counter. The binding of peptide Hep-III to endothelial cells is saturable (FIG. 10B)--an indication of specificity. […] These experiments indicate that peptide Hep-III specificity interacts with the surfaces of both endothelial cells and melanoma.

K-1735-M4 melanoma cells = experiment: Adhesion of melanoma cells to peptide-coated wells; assay type: cell-based, murine; details: 120 minutes, 37° C.
Description: Highly metastatic murmine melanoma cells, K-1735-M4 were originally provided by Dr. I. J. Fidler of Anderson Hospital, University of Texas Health Sciences Center, Houston, Tex. When the cells were received, a large number of early passage cells were propagated and frozen in liquid nitrogen. The tumor cells are usually cultured in vitro for no longer than six weeks. Following this period, the cells are discarded and new cells withdrawn from storage for use in further in vitro or in vivo experiments. This precaution is taken to minimize phenotypic drift that can occur as a result of continuous in vitro passage. The cells were cultured in Dulbecco's Modified Eagle's Medium containing 5% heat inactivated fetal calf serum. The cultures were grown in 37° C. incubators with a humidified atmosphere containing 5% CO2. Cells were subcultured twice weekly by releasing cells gently from the flask, using 0.05% trypsin and 1 mM EDTA.
Cultures of cells which were 60-80% confluent were metabolically labeled for 24 hours with the addition of 3 mCi/ml of ^3 H-td (tritiated thymidine). On the day of the assay, the cells were harvested by trypsinization, the trypsin was inhibited by the addition of serum, and the cells were washed free of this mixture and resuspended in DMEM buffered with HEPES at pH 7.2. […] The solubilized cells were then quantitated using a liquid scintillation counter. […]

melanoma cells [6] = experiment: Direct binding of 125I-labeled peptide Hep-III to melanoma cell surface; design: species or system murine; details: about 5,000 cells; 15 min, 4° C.; increasing peptide concentrations
Protocol: as §2

[7] = same methodology, same coating concentrations

Substance: dextran
competition for the binding of tritiated heparin to peptide Hep-III (peptide Hep-III): substantially more dextran is needed to achieve similar levels of competition

heparin binding strength relative to peptide Hep-I (TS-2) [3, 7]: at least 10 times
heparin binding strength relative to type IV collagen [3, 7]: about 100 times
Substance: gly-glu-phe-tyr-phe-asp-leu-arg-leu-lys-gly-asp-lys (GEFYFDLRLKGDK) [Hep-III, …; type IV collagen residues 531-543 from the amino-terminus of the α1 chain]
inhibition of heparin binding to type IV collagen (type IV collagen): strong inhibitor of heparin binding to type IV collagen
decrease of melanoma cell binding to type IV collagen-coated substrata (melanoma cell line (M4)): dramatically decrease the binding of melanoma cells
competition of radiolabeled Hep-III binding to endothelial cells by unlabeled peptide (endothelial cells [1]): could efficiently compete
competition of radiolabeled Hep-III binding to melanoma cells by unlabeled peptide (melanoma cells [2]): can be competed only by an excess of unlabeled peptide Hep-III
binding of 3H-heparin to coated peptide ([3]; peptide coated on 96-well plastic plates, 3H-heparin 0 to 1400 ng/well, 2 h, 37° C.): extremely potent promoter of heparin-binding to synthetic substrates; also recorded: strong binding to heparin; also recorded: very potent binder of heparin
endothelial cell adhesion to coated substrate (in words) [4]: promotes substantial adhesion of endothelial cells even at very low plating concentrations
binding of 125I-labeled peptide to endothelial cell surface (endothelial cells [5]): saturable
maximal melanoma cell adhesion (K-1735-M4 melanoma cells; peptide coated at increasing concentrations): 70,000 dpm
melanoma cell adhesion (K-1735-M4 melanoma cells; peptide concentration 0.5 μg/well): 80 % of input
binding of 125I-labeled peptide to melanoma cell surface (melanoma cells [6]): with a tendency for saturation at the higher concentrations used

Substance: heparin
competition for the binding of tritiated heparin to peptide Hep-III (peptide Hep-III): able to compete for the binding of tritiated heparin to peptide Hep-III at very low concentrations

Substance: chondroitin sulfate
competition for the binding of tritiated heparin to peptide Hep-III (peptide Hep-III): cannot mimic this effect except at extremely high concentrations
